The source made the active and inactive calls. The rule behind the calls is not given here.
Tests used:
Transcription factor p65 [1] = target: T1, Transcription factor p65 (Homo sapiens, UniProt Q04206); test: (§1) Binding affinity to recombinant FLAG-tagged p65 (unknown origin) expressed in HEK293T cells assessed as retention time of carbamidomethylation on Cys38 residue of C38EGRSAGSIPGERSTDTTK56 with m/z 814.7165 measured following LysC digestion at 10 uM incubated for 3 hrs by HCD/EThcD based mass spectrometry; format: cell-based
Transcription factor p65 [2] = target: T1, Transcription factor p65; test: as §1, with “814.7164” for “814.7165”; format: cell-based
RAW264.7 [3] = test: Inhibition of p65 phosphorylation in LPS-stimulated mouse RAW264.7 cells at 1 to 10 uM incubated for 6 hrs by wester blot analysis; format: cell-based; conditions: dose 1-10 µM
[4] = target: T2, NF-kappa-B inhibitor alpha (Mus musculus) (UniProt Q9Z1E3); test: Inhibition of IkappaB alpha phosphorylation in LPS-stimulated mouse RAW264.7 cells at 1 to 10 uM incubated for 6 hrs by western blot analysis; format: cell-based; conditions: dose 1-10 µM
T2 sequence (whole entry): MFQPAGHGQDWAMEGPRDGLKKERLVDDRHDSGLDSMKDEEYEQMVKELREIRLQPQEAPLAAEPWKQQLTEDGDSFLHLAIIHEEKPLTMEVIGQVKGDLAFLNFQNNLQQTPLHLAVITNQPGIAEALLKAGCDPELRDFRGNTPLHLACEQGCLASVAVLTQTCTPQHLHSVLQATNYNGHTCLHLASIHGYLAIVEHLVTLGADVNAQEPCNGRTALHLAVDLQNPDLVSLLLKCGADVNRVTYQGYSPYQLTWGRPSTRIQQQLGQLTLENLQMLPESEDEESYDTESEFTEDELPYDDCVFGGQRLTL

RAW264.7 [5] = test: Inhibition of p65 nuclear translocation in LPS-stimulated mouse RAW264.7 cells at 1 to 10 uM incubated for 6 hrs by western blot analysis; format: cell-based; conditions: dose 1-10 µM
RAW264.7 [6] = test: Inhibition of NF-kappaB signaling pathway in mouse RAW264.7 cells assessed as decrease in COX-2 protein expression at 10 to 75 uM incubated for 6 hrs by western blot analysis; format: cell-based; conditions: dose 10-75 µM
RAW264.7 [7] = test: Inhibition of NF-kappaB signaling pathway in mouse RAW264.7 cells assessed as decrease in iNOS protein expression at 10 to 75 uM incubated for 6 hrs by western blot analysis; format: cell-based; conditions: dose 10-75 µM
Transcription factor p65 [8] = target: T1, Transcription factor p65; test: Displacement of biotin-labeled p65 binding oligonucleotides from p65 (unknown origin) overexpressed in HEK293T cell nuclear extract incubated for 2 hrs by electrophoretic mobility shift assay; format: subcellular, Nucleus
[9] = Displacement of biotin-labeled p65 binding oligonucleotides from p65/p65-C38A mutant (unknown origin) overexpressed in HEK293T cell nuclear extract incubated for 2 hrs by electrophoretic mobility shift assay; format: subcellular, Homo sapiens, Nucleus
HEK-293T [10] = test: Antiproliferative activity against HEK293T cells assessed as inhibition of cell proliferation incubated for 72 hrs by Alamar Blue dye based fluorescence analysis; format: functional; conditions: Homo sapiens
HEK-293T [11] = test: Antiproliferative activity against HEK293T cells overexpressing p65 assessed as inhibition of cell proliferation incubated for 72 hrs by Alamar Blue dye based fluorescence analysis; format: functional; conditions: Homo sapiens
HEK-293T [12] = test: Antiproliferative activity against HEK293T cells overexpressing p65 C38A mutant assessed as inhibition of cell proliferation incubated for 72 hrs by Alamar Blue dye based fluorescence analysis; format: functional; conditions: Homo sapiens
[13] = Ratio of IC50 for antiproliferative activity against HEK293T cells overexpressing p65 C38A mutant to IC50 for HEK293T cells overexpressing p65; format: functional, Homo sapiens
HEK-293T [14] = test: Antiproliferative activity against mutant HEK293T cells overexpressing p65 C38A mutant assessed as inhibition of cell proliferation incubated for 72 hrs by Alamar Blue dye based fluorescence analysis; format: functional; conditions: Homo sapiens
[15] = Ratio of IC50 for antiproliferative activity against mutant HEK293T cells overexpressing p65 C38A mutant to IC50 for antiproliferative activity against HEK293T cells; format: functional, Homo sapiens
Transcription factor p65 [16] = target: T1, Transcription factor p65; test: Binding affinity to recombinant FLAG-tagged p65 (unknown origin) expressed in HEK293T cells assessed as 490.2203 Da modification on Cys38 residue of C38EGRSAGSIPGERSTDTTK56 measured following LysC digestion at 10 uM incubated for 3 hrs by HCD/EThcD based mass spectrometry; format: cell-based

T1 sequence (Q04206 whole entry): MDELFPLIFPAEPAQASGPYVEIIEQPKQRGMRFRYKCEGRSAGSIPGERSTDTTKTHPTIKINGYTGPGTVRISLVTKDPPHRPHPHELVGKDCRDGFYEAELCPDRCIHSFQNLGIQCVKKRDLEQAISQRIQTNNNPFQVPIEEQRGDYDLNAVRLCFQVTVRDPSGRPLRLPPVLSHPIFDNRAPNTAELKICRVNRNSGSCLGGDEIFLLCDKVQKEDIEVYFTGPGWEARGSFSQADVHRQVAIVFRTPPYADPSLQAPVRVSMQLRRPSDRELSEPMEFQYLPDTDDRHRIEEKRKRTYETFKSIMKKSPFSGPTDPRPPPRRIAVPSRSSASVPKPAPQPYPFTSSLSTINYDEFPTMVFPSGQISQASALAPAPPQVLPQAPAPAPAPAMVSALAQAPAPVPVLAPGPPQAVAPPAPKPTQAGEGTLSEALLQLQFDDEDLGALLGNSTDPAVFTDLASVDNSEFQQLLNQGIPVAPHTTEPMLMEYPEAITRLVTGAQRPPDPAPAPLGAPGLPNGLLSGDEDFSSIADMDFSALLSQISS

- Retention time (Transcription factor p65 [1]): 14.4 min
- Retention time (Transcription factor p65 [2]): 14.6 min
- inhibition [4]: Dose-dependent-effect
- IC50 (Transcription factor p65 [8]): ~40 µM
- IC50 [9]: ~100 µM
- Activity (Transcription factor p65 [16]): Active
SMILES: C=C1C(=O)[C@]23C[C@H]1C[C@H](OC(C)=O)[C@H]2[C@]1(C)[C@@H](OC(C)=O)C[C@H](O)C(C)(C)[C@H]1C(=O)[C@@H]3OC(C)=O [ADENANTHIN]
- inhibition (RAW264.7 [3]): Dose-dependent-effect
- inhibition (RAW264.7 [5]): Active
- inhibition (RAW264.7 [6]): Active
- inhibition (RAW264.7 [7]): Active
- IC50 (HEK-293T [10]): 0.72 µM
- IC50 (HEK-293T [11]): 0.81 µM
- IC50 (HEK-293T [12]): 2 µM
- Ratio IC50 [13]: 2
- IC50 (HEK-293T [14]): 9.94 µM
- Ratio IC50 [15]: 10

Reference: ChEMBL document CHEMBL6083237, “Adenanthin exhibits anti-inflammatory effects by covalently targeting the p65 subunit in the NF-κB signaling pathway” (Eur J Med Chem, 2024)
